Results reported in patent US7122693B2, “Acetaldehyde acetal compounds, their synthesis, and uses thereof” (Shire BioChem Inc., priority 1988, dated 2006).
Where “and” joins values, the source holds several entries; their conditions need not be identical. Equal values may be shown once. Read-outs that look alike come from different tables or passages of the source.

Key:
Format in all cases: cell-based
[1] = test system: HIV-1 in MT-4 cells; assay: Viable cell counts, cytolytic effect of HIV-1 on MT-4 cells; conditions: for viability at 2 µg/mL: Human immunodeficiency virus 1, MT4, 144 h
Procedure: (§1) In vitro testing was conducted on several of the compounds of this invention to determine their inhibitory properties. The concentrations reported are μg/ml in the incubation media which affect the susceptibility of a continuous line of T-cells developed at the Lady Davis Institute for Medical Research (Montreal) by Dr. Mark A. Wainberg toward infection by HIV-1 following a protocol similar to that of H. Mitsuya and S. Broder, “Inhibition of the in vitro infectivity and cytopathic effect of human T-lymphotropic virus type III/lymphadenopathy-associated virus (HTLV-III/LAV) by 2′3′-dideoxynucleosides”, Proc. Natl. Acad. Sci. USA, 83, pp. 1911–15 (1986). Protection of the cell line from infection was monitored by staining with monoclonal antibodies against viral proteins in the standard manner (Table 1). In all experiments, comparisons were made with the drug AZT as the control. In order to confirm the results, the drug effects were monitored by measuring reverse transcriptase (RT) activity in the U-937 line of human monocytic cells as assayed in the usual manner with tritiated thymidine triphosphate (TTP) (Table 2). The drug effects on cell viability as measured by the well-know cytolytic effects of HIV-1 on the MT-4 cell line was evaluated in the accepted manner (Table 1).

[2] = test system: HIV-1 in MT-4 cells; assay: P-24 immunofluorescence in MT-4 cells (staining with monoclonal antibodies against viral proteins); conditions: 2 μg/ml
Procedure: as §1

[3] = test system: HIV-1 in H-9 cells; assay: Reverse transcriptase assay, HIV-1 production in H-9 cells (Table 2); conditions: 2 μg/ml
[4] = test system: HIV-1 in MT-4 cells; assay: Reverse transcriptase assay in MT-4 cells; conditions: 2 μg/ml
[5] = test system: HIV-1 in H-9 cells; assay: RT activity, HIV-1 production in H-9 cells (Table 3)
[6] = MT-4 cells, HIV-1, 6 days in culture, 2 μg/ml of compound, read-out: Cell Viability %
[7] = 7 days in culture (row between 14 and 21)
[8] = MT-4 cells, HIV-1, 6 days in culture, 2 μg/ml of compound

## Nc1ccn(C2C[S+]([O-])C(CO)O2)c(=O)n1 (single isomer, unassigned) [cis-XII (b), Cis-2-hydroxymethyl-5-(cytosin-1′-yl)-3-oxo-1,3-oxathiolane]
[1]; [6]
  viability at 2 µg/mL: 14%

## Cc1cn(C2CC(N=[N+]=[N-])C(CO)O2)c(=O)[nH]c1=O (centres unmarked) [AZT, 3′-azido-2′,3′-dideoxythymidine, reference compound]
[1]; read-out: Cell Viability %, MT-4 cells, HIV-1, 6 days in culture, 2 μg/ml of compound
  viability at 2 µg/mL: 88.6%
[2]; 3 days in culture
  % Immunofluorescent Cells (P-24): 1.0%
[2]; 6 days in culture
  % Immunofluorescent Cells (P-24): 1.0%
[3]; 5 days in culture
  RT Activity (CPM × 1000)/ml: 3.346 (CPM × 1000)/ml
[3]; [7]
  RT Activity (CPM × 1000)/ml: 2.997 (CPM × 1000)/ml
[3]; 8 days in culture
  RT Activity (CPM × 1000)/ml: 3.414 (CPM × 1000)/ml
[3]; 11 days in culture
  RT Activity (CPM × 1000)/ml: 2.918 (CPM × 1000)/ml
[3]; 14 days in culture
  RT Activity (CPM × 1000)/ml: 8.320 (CPM × 1000)/ml
[3]; 21 days in culture
  RT Activity (CPM × 1000)/ml: 3.111 (CPM × 1000)/ml
[3]; 25 days in culture
  RT Activity (CPM × 1000)/ml: 15.88 (CPM × 1000)/ml
[3]; 29 days in culture
  RT Activity (CPM × 1000)/ml: 32.08 (CPM × 1000)/ml
[3]; 33 days in culture
  RT Activity (CPM × 1000)/ml: 612.2 (CPM × 1000)/ml
[3]; 37 days in culture
  RT Activity (CPM × 1000)/ml: 878.2 (CPM × 1000)/ml
[3]; 41 days in culture
  RT Activity (CPM × 1000)/ml: 994.0 (CPM × 1000)/ml
[3]; 45 days in culture
  RT Activity (CPM × 1000)/ml: 32.91 (CPM × 1000)/ml
[4]; 3 days in culture
  RT Activity (CPM × 1000)/ml: 1.564 (CPM × 1000)/ml
[4]; 6 days in culture
  RT Activity (CPM × 1000)/ml: 1.748 (CPM × 1000)/ml
[5]; inhibitor 20 μM
  RT activity (cpm) after 8 days: 633 cpm and 587 cpm
  RT activity (cpm) after 26 days: 821 cpm and 679 cpm

## CN(C)C=Nc1ccn(C2CSC(CO)O2)c(=O)n1 (stereo not drawn) [cis-LIII, Cis-2-hydroxymethyl-5-(N-dimethylaminomethylenecytosin-1′-yl)-1,3-oxathiolane]
[1]; [6]
  viability at 2 µg/mL: 18%

## O=c1[nH]cnc2c1ncn2C1CSC(CO)O1 (stereo not drawn) [cis-LVI, Cis-2-hydroxymethyl-5-(6′-hydroxypurin-N-9′-yl)-1,3-oxathiolane]
[1]; [6]
  viability at 2 µg/mL: 11%

## Nc1ccn(C2CSC(CO)O2)c(=O)n1 (stereo not drawn) [cis-XI, Cis-2-hydroxymethyl-5-(cytosin-1′-yl)-1,3-oxathiolane]
[1]; [8]
  Cell Viability %: 87.4%
[2]; 3 days in culture
  % Immunofluorescent Cells (P-24): 1.0%
[2]; 6 days in culture
  % Immunofluorescent Cells (P-24): 7.6%
[3]; 5 days in culture
  RT Activity (CPM × 1000)/ml: 3.077 (CPM × 1000)/ml
[3]; [7]
  RT Activity (CPM × 1000)/ml: 2.399 (CPM × 1000)/ml
[3]; 8 days in culture
  RT Activity (CPM × 1000)/ml: 5.853 (CPM × 1000)/ml
[3]; 11 days in culture
  RT Activity (CPM × 1000)/ml: 3.560 (CPM × 1000)/ml
[3]; 14 days in culture
  RT Activity (CPM × 1000)/ml: 2.872 (CPM × 1000)/ml
[3]; 21 days in culture
  RT Activity (CPM × 1000)/ml: 2.907 (CPM × 1000)/ml
[3]; 25 days in culture
  RT Activity (CPM × 1000)/ml: 4.020 (CPM × 1000)/ml
[3]; 29 days in culture
  RT Activity (CPM × 1000)/ml: 3.756 (CPM × 1000)/ml
[3]; 33 days in culture
  RT Activity (CPM × 1000)/ml: 3.803 (CPM × 1000)/ml
[3]; 37 days in culture
  RT Activity (CPM × 1000)/ml: 4.193 (CPM × 1000)/ml
[3]; 41 days in culture
  RT Activity (CPM × 1000)/ml: 4.515 (CPM × 1000)/ml
[3]; 45 days in culture
  RT Activity (CPM × 1000)/ml: 3.441 (CPM × 1000)/ml
[4]; 3 days in culture
  RT Activity (CPM × 1000)/ml: 2.381 (CPM × 1000)/ml
[4]; 6 days in culture
  RT Activity (CPM × 1000)/ml: 2.301 (CPM × 1000)/ml

## O=c1ccn(C2CSC(CO)O2)c(=O)[nH]1 (stereo not drawn) [cis-XVIII, Cis-2-hydroxymethyl-5-(uracil-N-1′-yl)-1,3-oxathiolane]
[1]; [6]
  viability at 2 µg/mL: 14%

## Nc1ccn(C2COC(CO)O2)c(=O)n1 (stereo not drawn) [trans-(XXXVI), trans-2-hydromethyl-4-(cytosin-1′-yl)-1,3-dioxolane]
[5]; inhibitor 10 μM
  RT activity (cpm) after 8 days: 4,608 cpm
  RT activity (cpm) after 12 days: 83,462 cpm
  RT activity (cpm) after 26 days: 312,478 cpm
[5]; inhibitor 50 μM
  RT activity (cpm) after 8 days: 1,319 cpm
  RT activity (cpm) after 12 days: 758 cpm
  RT activity (cpm) after 26 days: 1,732 cpm

## Nc1ccn(C2CSC(CO)O2)c(=O)n1 (stereo not drawn) [trans-XI, trans-2-hydroxymethyl-5-(cytosin-1′-yl)-1,3-oxathiolane]
[1]; [8]
  Cell Viability %: 24%
